# Measured values as given in ChEMBL document CHEMBL2424642, “Heterocyclic glucocorticoid receptor modulators with a 2,2-dimethyl-3-phenyl-N-(thiazol or thiadiazol-2-yl)propanamide core” (Bioorg Med Chem Lett, 2013).
# Experiments:
# Glucocorticoid receptor [1] = biological target: T1, Glucocorticoid receptor (Homo sapiens, UniProt P04150); assay: Transactivation of GR-LBD expressed in human HeLa cells co-expressing GAL4-DBD by luciferase reporter gene assay; format: cell-based
# T1 sequence (P04150 whole entry): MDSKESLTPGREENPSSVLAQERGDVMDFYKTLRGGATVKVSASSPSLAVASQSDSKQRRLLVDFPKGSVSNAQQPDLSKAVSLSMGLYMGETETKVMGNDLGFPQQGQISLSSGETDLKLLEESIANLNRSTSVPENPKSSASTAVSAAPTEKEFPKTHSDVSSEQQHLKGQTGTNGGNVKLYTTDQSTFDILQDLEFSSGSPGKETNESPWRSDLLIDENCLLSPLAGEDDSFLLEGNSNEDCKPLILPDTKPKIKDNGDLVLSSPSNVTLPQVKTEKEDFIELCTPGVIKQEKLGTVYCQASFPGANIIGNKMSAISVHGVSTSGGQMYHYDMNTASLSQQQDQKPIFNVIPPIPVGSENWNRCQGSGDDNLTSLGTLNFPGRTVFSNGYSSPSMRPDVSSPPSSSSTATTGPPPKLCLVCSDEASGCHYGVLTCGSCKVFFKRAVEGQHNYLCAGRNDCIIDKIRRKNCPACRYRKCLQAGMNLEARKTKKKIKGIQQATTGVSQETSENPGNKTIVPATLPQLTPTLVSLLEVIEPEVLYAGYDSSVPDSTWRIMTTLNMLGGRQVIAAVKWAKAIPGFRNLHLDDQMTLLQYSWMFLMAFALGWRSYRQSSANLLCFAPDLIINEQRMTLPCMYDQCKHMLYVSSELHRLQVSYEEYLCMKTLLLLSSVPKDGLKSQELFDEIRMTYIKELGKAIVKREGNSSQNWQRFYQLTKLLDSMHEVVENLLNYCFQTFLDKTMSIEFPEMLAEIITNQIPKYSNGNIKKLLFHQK
# Glucocorticoid receptor [2] = biological target: T1, Glucocorticoid receptor; assay: Transrepression of glucocorticoid receptor in human A549 cells assessed as inhibition of PMA-induced AP-1 activity by luciferase reporter gene assay; format: cell-based
# [3] = biological target: T2, Glucocorticoid receptor (Homo sapiens) (UniProt P04150); assay: Transrepression of glucocorticoid receptor in human A549 cells assessed as inhibition of PMA-induced AP-1 activity by luciferase reporter gene assay relative to dexamethasone; format: cell-based
# T2 sequence (whole entry): T1 sequence (P04150 whole entry)
# Glucocorticoid receptor [4] = biological target: T1, Glucocorticoid receptor; assay: Binding affinity to glucocorticoid receptor-LBD (unknown origin) by fluorescence polarization assay
# Glucocorticoid receptor [5] = biological target: T1, Glucocorticoid receptor; assay: (§1) Transactivation of GR-LBD expressed in human HeLa cells co-expressing GAL4-DBD by luciferase reporter gene assayrelative to dexamethasone; format: cell-based; conditions: hela
# [6] = biological target: T3, Glucocorticoid receptor (GR-LBD) (Homo sapiens, UniProt P04150); assay: as §1; format: cell-based; conditions: HeLa cells expressing GR-LBD and GAL4-DBD, read-out: Efficacy
# T3 sequence (P04150 whole entry): T1 sequence (P04150 whole entry)
Structure (SMILES),EC50 (Glucocorticoid receptor [1]) [µM],EC50 (Glucocorticoid receptor [2]) [µM],Efficacy [3] [%],Ki (Glucocorticoid receptor [4]) [µM],Efficacy (Glucocorticoid receptor [5]) [%],Emax [6] [%]
CC(C)(C(=O)Nc1nncs1)C(c1ccccc1)c1ccc2c(-c3ccc(C#N)cc3)ncn2c1 (centres undefined),> 10,0.14,37,0.002,,
"CC(C)(C(=O)Nc1nncs1)C(c1ccccc1)c1ccn2c(-c3ccccc3)ncc2c1 (single isomer, unassigned; enantiomer 2) [listing 1 of 2 here]",,,61,,,
CC(C)(C(=O)Nc1nncs1)C(c1ccccc1)c1cc(-c2ccc(F)cc2)c2ncccc2c1 (centres undefined),,> 10,,0.196,,
"CC(C)(C(=O)Nc1nncs1)C(c1ccccc1)c1ccc2c(-c3ccc(F)cc3)ncn2c1 (single isomer, unassigned; enantiomer 2) [listing 1 of 2 here]",0.118,0.024,,0.002,65,
"CC(C)(C(=O)Nc1nccs1)C(c1ccccc1)c1ccc2c(-c3ccc(F)cc3)ncn2c1 (single isomer, unassigned; enantiomer 1)",> 10,> 5,,0.004,,
CC(C)(C(=O)Nc1nccs1)C(c1ccccc1)c1ccc2[nH]ccc2c1 (centres undefined),,0.23,61,0.007,,
CC(C)(C(=O)Nc1nccs1)C(c1ccccc1)c1cc(-c2ccc(F)cc2)c2ncccc2c1 (centres undefined),,> 10,,0.285,,
"CC(C)(C(=O)Nc1nncs1)C(c1ccccc1)c1ccn2c(-c3ccccc3)ncc2c1 (single isomer, unassigned; enantiomer 1) [listing 1 of 2 here]",> 10,1.12,,0.005,,
CC(C)(C(=O)Nc1nncs1)C(c1ccccc1)c1ccc2c(-c3ccc(F)c(Cl)c3)ncn2c1 (centres undefined),> 10,0.111,20,0.005,,
CC(C)(C(=O)Nc1nccs1)C(c1ccccc1)c1ccc2c(-c3ccc(C#N)cc3)ncn2c1 (centres undefined),> 10,0.089,37,0.004,,
"CC(C)(C(=O)Nc1nncs1)C(c1ccccc1)c1ccn2c(-c3ccccc3)ncc2c1 (single isomer, unassigned; enantiomer 2) [listing 2 of 2 here]",0.613,0.254,,0.001,,43
CC(C)(C(=O)Nc1nccs1)C(c1ccccc1)c1ccc2c(-c3ccc(F)cc3)ncn2c1 (centres undefined) [listing 1 of 2 here],,,66,,,
CC(C)(C(=O)Nc1nncs1)C(c1ccccc1)c1ccc2c(-c3ccc(F)cc3)ncn2c1 (centres undefined) [listing 1 of 2 here],,,68,,,
CC(C)(C(=O)Nc1nccs1)C(c1ccccc1)c1ccc2c(ccn2-c2ccc(F)cc2)c1 (centres undefined),,0.22,60,,,
CC(C)(C(=O)Nc1nccs1)C(c1ccccc1)c1ccc2c(-c3ccc(F)c(Cl)c3)ncn2c1 (centres undefined),> 10,0.114,26,0.008,,
CC(C)(C(=O)Nc1nccs1)C(c1ccccc1)c1ccn2cncc2c1 (centres undefined),,1.2,39,0.018,,
CC(C)(C(=O)Nc1nccs1)C(c1ccccc1)c1ccc2nncn2c1 (centres undefined),,> 10,,,,
CC(C)(C(=O)Nc1nncs1)C(c1ccccc1)c1ccn2c(-c3ccccc3)ncc2c1 (centres undefined) [listing 1 of 2 here],2,0.899,,0.003,30,
CC(C)(C(=O)Nc1nccs1)C(c1ccccc1)c1ccc2cncn2c1 (centres undefined),,> 10,,,,

Structure (SMILES),EC50 (Glucocorticoid receptor [1]) [µM],EC50 (Glucocorticoid receptor [2]) [µM],Efficacy [3] [%],Ki (Glucocorticoid receptor [4]) [µM],Efficacy (Glucocorticoid receptor [5]) [%],Emax [6] [%]
"CC(C)(C(=O)Nc1nccs1)C(c1ccccc1)c1ccc2c(-c3ccc(F)cc3)ncn2c1 (single isomer, unassigned; enantiomer 2) [listing 1 of 2 here]",,,73,,,
CC(C)(C(=O)Nc1nccs1)C(c1ccccc1)c1ccc2ncccc2c1 (centres undefined),,> 10,,0.085,,
CC(C)(C(=O)Nc1nncs1)C(c1ccccc1)c1ccc2c(-c3ccc(F)cc3)ncn2c1 (centres undefined) [listing 2 of 2 here],0.262,0.036,,0.003,,66
CC(C)(C(=O)Nc1nncs1)C(c1ccccc1)c1ccc2c(-c3cccc(C#N)c3)ncn2c1 (centres undefined),> 10,1.35,32,0.004,,
CC(C)(C(=O)Nc1nccs1)C(c1ccccc1)c1ccc2c(-c3ccc(F)cc3F)ncn2c1 (centres undefined),0.078,0.014,75,0.002,,73
CC(C)(C(=O)Nc1nncs1)C(c1ccccc1)c1ccn2c(-c3ccccc3)ncc2c1 (centres undefined) [listing 2 of 2 here],,,66,,,
CC(C)(C(=O)Nc1nncs1)C(c1ccccc1)c1ccc2c(-c3ccc(F)cc3F)ncn2c1 (centres undefined),0.117,0.015,69,0.001,,61
CC(C)(C(=O)Nc1nccs1)C(c1ccccc1)c1ccc2c(-c3cccc(C#N)c3)ncn2c1 (centres undefined),> 10,0.225,30,0.004,,
"CC(C)(C(=O)Nc1nncs1)C(c1ccccc1)c1ccc2c(-c3ccc(F)cc3)ncn2c1 (single isomer, unassigned; enantiomer 1) [listing 1 of 2 here]",> 10,1.2,,0.006,,
"CC(C)(C(=O)Nc1nncs1)C(c1ccccc1)c1ccc2c(-c3ccc(F)cc3)ncn2c1 (single isomer, unassigned; enantiomer 1) [listing 2 of 2 here]",,,24,,,
CC(C)(C(=O)Nc1nccs1)C(c1ccccc1)c1ccc2c(-c3ccc(F)cc3)ncn2c1 (centres undefined) [listing 2 of 2 here],0.103,0.016,,0.003,,74
"CC(C)(C(=O)Nc1nccs1)C(c1ccccc1)c1ccc2c(-c3ccc(F)cc3)ncn2c1 (single isomer, unassigned; enantiomer 2) [listing 2 of 2 here]",0.06,0.006,,0.001,69,
"CC(C)(C(=O)Nc1nncs1)C(c1ccccc1)c1ccn2c(-c3ccccc3)ncc2c1 (single isomer, unassigned; enantiomer 1) [listing 2 of 2 here]",,,34,,,
CC(C)(C(=O)Nc1nncs1)C(c1ccccc1)c1ccc2c(-c3cccc(CO)c3)ncn2c1 (centres undefined),> 10,> 5,,0.005,,
"CC(C)(C(=O)Nc1nncs1)C(c1ccccc1)c1ccc2c(-c3ccc(F)cc3)ncn2c1 (single isomer, unassigned; enantiomer 2) [listing 2 of 2 here]",,,72,,,
CC(C)(C(=O)Nc1nccs1)C(c1ccccc1)c1ccn2c(-c3ccccc3)ncc2c1 (centres undefined) [listing 1 of 2 here],,,70,,,
"CC(C)(C(=O)Nc1nccs1)C(c1ccccc1)c1ccn2c(-c3ccccc3)ncc2c1 (single isomer, unassigned; enantiomer 1)",> 10,> 2.5,,0.011,,
CC(C)(C(=O)Nc1nccs1)C(c1ccccc1)c1ccc2cnccc2c1 (centres undefined),,> 10,,0.015,,
CC(C)(C(=O)Nc1nccs1)C(c1ccccc1)c1ccn2c(-c3ccccc3)ncc2c1 (centres undefined) [listing 2 of 2 here],0.36,0.06,,0.005,,32
